From patent US7271260B2, “3,4-dihydroquinazoline derivatives as T-type calcium channel blockers and method of preparing the same” (Korea Institute of Science and Technology, priority 2004, dated 2007) come the findings set out here.

Test [1] has as its target T1, α1G T-type calcium channel (Rattus norvegicus, UniProt O54898).
T1 construct: expressed in transfected cells; Perez-Reyes, University of Virginia
Kind of test: Whole cell patch clamp on HEK 293 cells expressing α1G T-type calcium channel. Conditions: for inhibition at 10 µM: HEK293; for channel inhibitory effect relative to Mibefradil (comparing IC50 values): HEK 293 cells (α1G), IC50 compared with Mibefradil; for IC50: read-out: IC50, HEK293 cells (α1G). It counts as cell-based. The procedure:
HEK 293 cells were cultured in Dulbecco's modified Eagle's medium (DMEM) supplemented with 10% fetal bovine serum (FBS) and 1% penicillin/streptomycin (v/v) in 36.5° C. humidified incubator (95% air-5% CO2). The culture solution was replaced with a fresh medium every 3 to 4 days and the cultured cells were subjected to sub-culture every week. At this time, the culture solution was treated with G-418 (0.5 mg/ml) solution so that only HEK 293 cells expressing α1G T-type calcium channel can grow. The cells used for the T-type calcium channel activity assay were cultured on a cover slip coated with poly-L-lysine (0.5 mg/ml) whenever sub-cultured and their calcium channel activity was recorded 2 to 7 days after the cultivation. The current of the T-type calcium channel at a single cell level was measured according to an electrophysiological whole cell patch clamping method using EPC-9 amplifier (HEKA, German). At this time, a cell exterior solution [140 mM NaCl, 2 mM CaCl2, 10 mM HEPES (pH 7.4)] and a cell interior solution [KCl 130 mM, HEPES 10 mM, EGTA 11 mM, MgATP 5 mM (pH 7.4)] were employed. The inward current caused by the T-type calcium channel activation was measured according to a T-type calcium channel protocol activated at low current. Such current occurs when the cells were converted into a whole-cell recording mode by stabbing a microglass electrode having 3-4 MΩ resistance, which was filled with the cell interior solution into a single cell and depolarized at −30 mV (50 ms duration period) every 10 seconds with fixing membrane potential to −100 mV.
In order to confirm whether the cells and methods used in Test Example 2 are a suitable screening system for selecting T-type calcium channel blockers, the results obtained in Example 2 were compared with those of α1G T-type calcium channel study reported in a public document (Monteil, A. et al., J. Biol. Chem. 275, 6090-6100, 2000). […] Thus, the candidate compounds were subjected to a test for their inhibitory effects on the T-type calcium channel according to the screening system of the present invention, as follows. Each compound was dissolved in 100% dimethylsulfoxide (DMSO) to prepare 10 mM stock solution. The inhibitory effect on the T-type calcium channel current was examined in 10 μM sample solution (containing 0.1% DMSO) prepared by diluting the stock solution by 1000-fold. The cells were treated with each compound at a concentration of 10 μM for 30 to 60 sec with the cell exterior solution.
On the technique in general: Patch clamp records ionic current or voltage across a cell membrane.

Test [2] concerns N-type (HVA) Ca2+ channel. As to the kind of experiment: Patch clamp of high voltage-activated calcium current in MPG (major pelvic ganglion) neurons. In kind it is cell-based, rat. Conditions: 10 μM; for selectivity for the sub-types of the calcium channel (T-type LVA vs N-type HVA): from Table 3; for Inhibitory effect, Ca2+ channel N-type (HVA): MPG neuron, n.i. = no inhibitory effect. The procedure:
In order to examine the selectivity of the compound of the present invention for other ion channels, the inhibitory effects of KYS05001, KYS05041 and KYS05042 on […] and high voltage-activated Ca2+ channel (HVA) were measured according to a conventional method (Lee, J.-H. et al., J. Neurophysiol. 2002, 87, 2844-2850) using MPG (major pelvic ganglion).
Male Sprague-Dawley rats having about 250 g of an average body weight were employed as experimental animals. After the rats were anesthetized with sodium pentobarbital (50 mg/kg, i.p.), the abdomen was cut open immediately. MPG located on the left side of the prostate was extracted and then transferred in cold (4° C.) Hank's balanced salt solution (HBSS, GibcoBRL). The connective tissue encompassing the ganglion was stripped therefrom and a small gap was made carefully on the naked ganglion with a sharp knife. Then, the ganglion was cultured in 10 ml of modified Earle's balanced salt solution (EBSS, pH 7.4, GibcoBRL) supplemented with 0.7 mg/ml of collagenase (type D), 0.3 mg/ml of trypsin and 0.1 mg/ml of DNAse type I at 35° C. for 1 hour (Zhu et al., J. Physiol. Lond. 1995, 489, 363-375). At this time, 3.6 g/l of glucose and 10 mM HEPES were added to EBSS. After the cultivation was completed, the culture flask was shaken to separate call clusters into a single nerve cell and subjected to centrifugation at 1000 rpm with a clinical centrifuge (International Equipment Company, Mass., U.S.A.). The separated single nerve cells were re-suspended in MEM (GibcoBRL) supplemented with 10% fetal bovine serum, 1% glutamine and 1% penicillin/streptomycin. They were then spread on a polystyrene culture dish (35 mm) coated with poly-L-lysine. The culture dish was incubated at 37° C. humidified incubator (95% air-5% CO2) and the cells were used in the following experiment within 24 hours after the separation.
The voltage-dependent calcium and sodium current were recorded according to a typical patch clamping method using a patch clamp amplifier (Axopatch 1D, Axon Instruments, Foster City, Calif., U.S.A.) at a whole-cell ruptured configuration (Hamill et al., Pflügers Arch. 1981, 391, 85-100). An electrode was made from a borosilicate glass capillary tube (outer diameter; 1.65 mm, inner diameter; 1.2 mm, Corning 7052, Garner Glass Co., Claremont, Calif., U.S.A.) using P-97 Flaming-Brown micropipette puller (Sutter Instrument Co., Novato, Calif., U.S.A.) and forged smoothly by heating with a microforge. The electrode showing 1˜3 MΩ of resistance when filled with a solution was used for the following experiment. The culture dish containing the nerve cells was placed on an inverted microscope and the cell exterior solution was flowed into the dish at a flow rate of about 1˜2 ml/min. The membrane capacitance and series resistance were corrected by 80% or more with an amplifier. The voltage generation and record of calcium current were carried out using S4 software (provided by Dr. Stephen R. Ikeda, National Institute on Alcohol Abuse and Alcoholism, NIH, USA) equipped in Macintosh computer, which was connected to an analogue/digital converter (Digidata 1200, Axon Instruments Co.). The calcium current, which passed through a low band pass filter at 2˜5 kHz, was stored in Macintosh computer and analyzed with IGOR PRO (Wave-Metrics, Lake Oswego, Oreg., U.S.A.). All the experiments were conducted at a room temperature ranging from 20 to 22° C.
The electrode for measuring the calcium current was filled with the solution comprising 120 mM N-methyl-D-glucamine (NMG) methanesulfonate (MS), 20 mM tetraethylammonium (TEA)-MS, 20 mM HCl, 11 mM EGTA, 10 mM HEPES, 1 mM CaCl2, 4 mM MgATP, 0.3 mM Na2GTP and 14 mM tris-phosphocreatine (pH 7.2, 290 mOsm). The extracellular infusion fluid was composed of 140 mM MS, 145 mM TEA-OH, 10 mM HEPES, 15 mM glucose, 10 mM CaCl2 and 0.0003 mM tetrodotoxin (TTX, pH 7.4, 320 mOsm). […]

[3] abbreviates: HEK 293 cells expressing α1G, 30 to 60 sec treatment, read-out: inhibitory effect on peak current, HEK293 cells (α1G) at 10 μM.
[4] abbreviates: Table 3 title says MPG neuron, values equal HEK 293 (α1G) values of Table 2, read-out: Inhibitory effect, Ca2+ channel T-type (LVA).

Molecules are shown by their SMILES. Like-named read-outs stand apart in the source and are kept apart here.

T1 sequence (O54898 whole entry): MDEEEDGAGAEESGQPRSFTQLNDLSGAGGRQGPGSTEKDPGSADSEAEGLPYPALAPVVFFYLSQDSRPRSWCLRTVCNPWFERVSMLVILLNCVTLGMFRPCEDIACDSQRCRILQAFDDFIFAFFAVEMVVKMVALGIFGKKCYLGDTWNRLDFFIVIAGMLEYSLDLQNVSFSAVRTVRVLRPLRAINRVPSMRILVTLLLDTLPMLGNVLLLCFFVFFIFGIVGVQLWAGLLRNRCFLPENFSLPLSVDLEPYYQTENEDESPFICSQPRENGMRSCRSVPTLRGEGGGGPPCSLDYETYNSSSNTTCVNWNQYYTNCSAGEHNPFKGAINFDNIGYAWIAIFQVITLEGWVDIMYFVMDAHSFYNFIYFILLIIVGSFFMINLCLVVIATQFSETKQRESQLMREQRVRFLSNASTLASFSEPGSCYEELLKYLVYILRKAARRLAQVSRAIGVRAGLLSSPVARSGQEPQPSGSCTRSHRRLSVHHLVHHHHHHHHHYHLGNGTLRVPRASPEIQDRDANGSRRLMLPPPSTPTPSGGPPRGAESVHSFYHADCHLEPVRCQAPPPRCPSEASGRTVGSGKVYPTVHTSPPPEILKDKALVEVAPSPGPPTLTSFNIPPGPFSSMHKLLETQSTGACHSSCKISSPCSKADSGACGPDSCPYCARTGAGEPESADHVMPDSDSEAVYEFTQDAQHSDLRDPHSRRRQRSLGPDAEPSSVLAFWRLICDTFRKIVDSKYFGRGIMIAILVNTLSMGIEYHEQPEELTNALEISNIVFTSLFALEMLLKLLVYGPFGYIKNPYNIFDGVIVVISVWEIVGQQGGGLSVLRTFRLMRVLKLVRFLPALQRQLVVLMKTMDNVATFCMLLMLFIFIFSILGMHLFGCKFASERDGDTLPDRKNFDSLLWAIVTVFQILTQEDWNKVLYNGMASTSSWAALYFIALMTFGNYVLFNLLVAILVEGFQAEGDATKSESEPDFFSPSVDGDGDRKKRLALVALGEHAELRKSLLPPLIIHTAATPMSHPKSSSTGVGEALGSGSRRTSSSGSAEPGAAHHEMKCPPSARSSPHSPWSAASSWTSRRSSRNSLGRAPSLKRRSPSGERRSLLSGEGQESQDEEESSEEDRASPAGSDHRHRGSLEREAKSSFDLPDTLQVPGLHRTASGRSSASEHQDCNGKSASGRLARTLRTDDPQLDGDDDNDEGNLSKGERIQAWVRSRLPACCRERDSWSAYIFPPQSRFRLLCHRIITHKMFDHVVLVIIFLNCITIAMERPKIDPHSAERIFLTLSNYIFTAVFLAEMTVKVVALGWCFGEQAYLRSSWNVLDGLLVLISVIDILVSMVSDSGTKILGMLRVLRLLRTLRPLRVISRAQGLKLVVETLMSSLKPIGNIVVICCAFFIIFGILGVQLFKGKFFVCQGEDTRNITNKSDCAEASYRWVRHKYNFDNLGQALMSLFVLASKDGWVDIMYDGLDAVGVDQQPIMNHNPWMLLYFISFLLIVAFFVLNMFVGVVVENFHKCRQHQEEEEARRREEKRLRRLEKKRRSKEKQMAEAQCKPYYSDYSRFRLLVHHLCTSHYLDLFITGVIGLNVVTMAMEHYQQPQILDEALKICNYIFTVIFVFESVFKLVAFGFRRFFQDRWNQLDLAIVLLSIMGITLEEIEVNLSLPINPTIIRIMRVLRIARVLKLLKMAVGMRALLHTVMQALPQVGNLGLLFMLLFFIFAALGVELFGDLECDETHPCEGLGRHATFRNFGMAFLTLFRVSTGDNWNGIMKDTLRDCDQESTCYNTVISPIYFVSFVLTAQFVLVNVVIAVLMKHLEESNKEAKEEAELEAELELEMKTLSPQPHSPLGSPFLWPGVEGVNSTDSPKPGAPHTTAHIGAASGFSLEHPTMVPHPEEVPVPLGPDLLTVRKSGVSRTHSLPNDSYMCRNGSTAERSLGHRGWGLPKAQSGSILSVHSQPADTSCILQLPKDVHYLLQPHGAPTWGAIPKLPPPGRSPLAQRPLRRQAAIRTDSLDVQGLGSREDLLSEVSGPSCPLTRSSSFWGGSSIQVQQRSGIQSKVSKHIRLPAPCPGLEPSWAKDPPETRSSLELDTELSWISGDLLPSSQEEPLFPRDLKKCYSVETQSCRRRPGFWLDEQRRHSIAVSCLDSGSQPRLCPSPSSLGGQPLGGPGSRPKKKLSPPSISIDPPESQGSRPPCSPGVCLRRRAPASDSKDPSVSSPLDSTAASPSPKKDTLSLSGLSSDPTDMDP

The IC50 is the concentration that inhibits the measured activity by half. `Cc1ccc(S(=O)(=O)Nc2ccc(CNC(=O)CC3c4ccccc4N=C(N4CCCCC4)N3c3ccccc3)cc2)cc1` (stereo not drawn) [KYS05041, 4-{N-[4-(4-methylbenzenesulfonylamido)benzyl]acetamido}-3-phenyl-2-(piperidine-1-yl)-3,4-dihydroquinazoline]: the inhibition at 10 µM in test [1] (setting [3]) worked out at 89.9%. Also, the inhibition at 10 µM in test [1] (setting [4]) amounted to 89.9%. In addition, the “channel inhibitory effect relative to Mibefradil (comparing IC50 values)” value in test [1] is listed as “about 3.4 fold”. Also, the IC50 in test [1] (HEK 293 cells expressing α1G) was determined as 250 nM. Further, in test [2], the “selectivity for the sub-types of the calcium channel (T-type LVA vs N-type HVA)” value was “relatively lower selectivity” and the “Inhibitory effect, Ca2+ channel N-type (HVA)” value (from here on “Inhibitory effect … (HVA)”) is listed as more than 89%.

As for `O=C(CC1c2ccccc2N=C(N2CCCCC2)N1c1ccccc1)NCc1ccccc1` (stereo not drawn) [KYS05001], the inhibition at 10 µM in test [1] (setting [3]) was 90.1%. In addition, in test [1] (setting [4]), the inhibition at 10 µM was 90.1%. For the same compound, in test [1], the “channel inhibitory effect relative to Mibefradil (comparing IC50 values)” value is recorded as “almost the same calcium channel inhibitory effect as Mibefradil”. Further, in test [1] (HEK 293 cells expressing α1G), the IC50 amounted to 900 nM. In test [2], the “selectivity for the sub-types of the calcium channel (T-type LVA vs N-type HVA)” value is listed as “selectively inhibited only the T-type (LVA) calcium channel” and the “Inhibitory effect … (HVA)” value is “n.i.^b”.

As to `O=C(CC1c2ccccc2N=C(N2CCCCC2)N1c1ccccc1)NCc1ccc(NS(=O)(=O)c2ccc(F)cc2)cc1` (stereo not drawn) [KYS05042, 4-{N-[4-(4-fluorobenzenesulfonylamido)benzyl]acetamido}-3-phenyl-2-(piperidine-1-yl)-3,4-dihydroquinazoline], the inhibition at 10 µM in test [1] (setting [3]) turned out to be 89%. Besides, in test [1] (setting [4]), the inhibition at 10 µM was found to be 89%. The “channel inhibitory effect relative to Mibefradil (comparing IC50 values)” value in test [1] is approximately 4.2 fold. Besides, the IC50 in test [1] (HEK 293 cells expressing α1G) worked out at 200 nM. Moreover, in test [2], the “selectivity for the sub-types of the calcium channel (T-type LVA vs N-type HVA)” value is “relatively lower selectivity” and the “Inhibitory effect … (HVA)” value is on record as more than 90%.
